Test results: US20240166645A1, “PYRIDOPYRIMIDINONE DERIVATIVE, PREPARATION METHOD THEREFOR, AND USE THEREOF” (Wuhan Humanwell Innovative Drug Research and Development …, priority 2021, published 2024)

Assays:
H358 cells = assay: Inhibition of 3D cell proliferation (3D CellTiter-Glo); type: cell-based; settings: Homo sapiens, NCI-H358, 168 h, read-out: IC50 (nM), inhibition of 3D proliferation of H358 cells, 7 days
Description: H358 cells were seeded in a T75 culture flask and cultured in a RPMI 1640 medium containing 10% FBS for 2 days for subsequent experiments in which the cells would be cultured or seeded on a 384-well plate.
On day 1, the cells were seeded on the 384-well plate, with 40 μL of medium added per well and serially diluted compounds or DMSO added per well, and an additional well without seeded cells but with medium was set up as a blank control. After culture at 37° C., 5% CO2 for 7 days, the plate was added with 3D CellTiter-Glo reagent (Promega, Cat. No. G9683) on day 8, shaken at 320 rpm for 20 min, and left at room temperature for 2 h. Luminescence signals were read on a multifunctional microplate reader. Cell viability inhibition rate was calculated as:
Cell viability inhibition rate=(DMSO group−test compound)/(DMSO group−blank control group)×100%
(§1) IC50 values were calculated using Graphpad 5 software.

[1] = system: ERK phosphorylation level in DLD-1 cells; assay: Inhibition of ERK phosphorylation level in DLD-1 cells (intracellular western blot); type: cell-based; settings: Homo sapiens
Description: Intracellular western blot quantitative analysis was used to detect the inhibitory level of compounds on ERK phosphorylation in DLD-1 cells.
DLD-1 cells (ATCC, CCL-221) were seeded in a T75 culture flask at 2.5×10^6 cells/flask and cultured in a RPMI 1640 medium containing 10% FBS for 2 days. On day 3, the cells were seeded on a 384-well plate, and cultured overnight at 37° C., 5% CO2. After overnight culture, the plate was added with serially diluted compounds (the final content of DMSO was 0.5%), the negative group was added with DMSO, and incubated in a 37° C., 5% CO2 incubator.
The cells were fixed, washed once with PBS, treated to disrupt membranes, and blocked at room temperature for 1 h. The blocking solution was removed. The plate was added with primary antibody (CST, Cat. No. #4370S), and incubated overnight at 4° C. The plate was washed 3 times with PBST (PBS solution added with 0.05% Tween-20) and soaked for 2 min each time. The plate was added with secondary antibody (LI-COR, Cat. No. 926-32211) and incubated at room temperature in the dark. The plate was washed 3 times with PBST and soaked for 2 min each time. The plate was centrifuged at 1000 rpm for 1 min, scanned on a two-color infrared laser imaging system (Odyssey® CLX) to read the signal.
Relative signal=800-channel signal values/700-channel signal values.
Relative expression level of ERK phosphorylation=(test compound−control compound I)/(DMSO group−control compound I)
as §1

KRAS G12C-SOS1 [2] = target: T1, KRAS G12C-SOS1 (Homo sapiens (Human), UniProt Q07889); assay: Inhibition test on KRAS G12C-SOS1 activity (Transcreener GDP-FI); type: biochemical
Target sequence in this assay (Q07889 564-1049 limits assumed): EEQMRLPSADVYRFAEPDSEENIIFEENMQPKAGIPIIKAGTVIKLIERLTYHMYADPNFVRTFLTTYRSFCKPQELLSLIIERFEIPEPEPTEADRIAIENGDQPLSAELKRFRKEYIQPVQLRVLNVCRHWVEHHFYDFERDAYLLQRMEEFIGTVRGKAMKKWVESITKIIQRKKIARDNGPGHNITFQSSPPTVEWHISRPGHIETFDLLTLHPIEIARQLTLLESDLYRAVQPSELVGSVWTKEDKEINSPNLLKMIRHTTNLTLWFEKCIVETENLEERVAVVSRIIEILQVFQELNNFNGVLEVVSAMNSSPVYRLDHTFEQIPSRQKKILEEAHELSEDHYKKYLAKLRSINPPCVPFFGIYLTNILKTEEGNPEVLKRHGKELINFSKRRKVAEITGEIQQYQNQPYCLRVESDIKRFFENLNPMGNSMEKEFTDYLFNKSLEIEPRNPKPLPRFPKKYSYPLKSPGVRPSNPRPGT
Description: The compound to be tested was prepared into a 10 mM stock solution with DMSO, and serially diluted using 1× test buffer (modified Tris buffer). The resulting compound solution was transferred to a 384-well plate, and the final content of DMSO was 0.25%, and an additional DMSO well without compound was set up as a high signal control.
1× test buffer (modified Tris buffer) was prepared. […] 5 μL of SOS1 and 5 μL of GTP were transferred to the 384-well plate, respectively.
GDP detection reagent was prepared using the test buffer. 10 μL of the detection reagent solution was transferred to the 384-well plate and incubated at room temperature for 2 h. After incubation, the plate was read on a multifunctional microplate reader (SpectraMax Paradigm) with an excitation wavelength of 580 nm and an emission wavelength of 620 nm. The fluorescence signal was read, and the inhibition rate was calculated as:
inhibition percentage=(high signal control−sample signal)/(high signal control−low signal control)×100, and IC50 values were calculated using Graphpad 5 software.

[3] = Plasma protein binding by equilibrium dialysis, human plasma; type: in vitro ADME; settings: 37° C., read-out: Free fraction in plasma, Human (%)
Description: Plasma protein binding rate of compounds was detected by equilibrium dialysis (HTDialysis, HTD 96b). The compound was prepared into a […] stock solution with DMSO, and then 25-fold diluted with 0.05 M sodium phosphate buffer as a working solution. A blank 96-well plate was taken and preloaded with 380 μL of plasma per well. The plasma was then added with the working solution at 20 μL/well and mixed well, with the compound at a final concentration of 1 μM, containing 0.2% DMSO per well.
100 μL of 0.05 M sodium phosphate buffer was added to the reception-side of each dialysis chamber (HTD 96b), and then 100 μL of plasma containing the compound was added to the supply-side. The dialysis chamber was covered with a plastic lid, shaken and incubated at 37° C. for 5 h.
After incubation, 25 μL of samples were taken from each of the supply-side and the reception-side of the dialysis chamber and placed in the blank 96-well plate. An equal volume of plasma was added to each of the supply-side samples while an equal volume of 0.05 M sodium phosphate buffer was added to each of the reception-side samples and mixed well. The 96-well plate was added with an acetonitrile solution containing internal standard at 200 μL per well, vortexed and shaken at 600 rpm for 10 min, and centrifuged at 5594 g for 15 min (Thermo Multifuge×3R). 50 μL of the supernatant was then transferred to a new 96-well plate, and the samples were mixed with 50 μL of ultra-pure water for LC-MS/MS analysis.
Plasma protein binding rate and free fraction were calculated using the following formulas: % binding rate=100×([supply-side concentration]5h−[reception-side concentration]5h)/[supply-side concentration]5h. % free fraction=100−% binding rate.

KRAS G12C-SOS1 [4] = target: T1, KRAS G12C-SOS1; assay: Inhibition test of compounds on KRAS G12C::SOS1 binding; settings: GST-KRAS G12C, His-SOS1
Description: The compound to be tested was prepared into a 10 mM stock solution with DMSO, and the compound was serially diluted using 1× test buffer. 0.1 μL of the compound solution with different concentrations was transferred to a 384-well plate. […] 5 μL of His-SOS1 was added to the 384-well plate, centrifuged at 1000 rpm for 1 min, and incubated at room temperature for 15 min.
After incubation, 10 μL of a mixed solution of anti-6his-Tb monoclonal antibody (Cisbio, Cat. No. 61HI2TLA) and anti-GST-XL665 monoclonal antibody (Cisbio, Cat. No. 61GSTXLA) was added to the test well, centrifuged at 1000 rpm for 1 min, and incubated at room temperature for 1 h.
After incubation, the fluorescence signal ratios at 665 nm and 615 nm were read on a multifunctional microplate reader (Perkin Elmer, Envision 2104), and the IC50 values were calculated using Graphpad 5 software.
Target sequence in this assay (Q07889 whole entry, stated change not applied): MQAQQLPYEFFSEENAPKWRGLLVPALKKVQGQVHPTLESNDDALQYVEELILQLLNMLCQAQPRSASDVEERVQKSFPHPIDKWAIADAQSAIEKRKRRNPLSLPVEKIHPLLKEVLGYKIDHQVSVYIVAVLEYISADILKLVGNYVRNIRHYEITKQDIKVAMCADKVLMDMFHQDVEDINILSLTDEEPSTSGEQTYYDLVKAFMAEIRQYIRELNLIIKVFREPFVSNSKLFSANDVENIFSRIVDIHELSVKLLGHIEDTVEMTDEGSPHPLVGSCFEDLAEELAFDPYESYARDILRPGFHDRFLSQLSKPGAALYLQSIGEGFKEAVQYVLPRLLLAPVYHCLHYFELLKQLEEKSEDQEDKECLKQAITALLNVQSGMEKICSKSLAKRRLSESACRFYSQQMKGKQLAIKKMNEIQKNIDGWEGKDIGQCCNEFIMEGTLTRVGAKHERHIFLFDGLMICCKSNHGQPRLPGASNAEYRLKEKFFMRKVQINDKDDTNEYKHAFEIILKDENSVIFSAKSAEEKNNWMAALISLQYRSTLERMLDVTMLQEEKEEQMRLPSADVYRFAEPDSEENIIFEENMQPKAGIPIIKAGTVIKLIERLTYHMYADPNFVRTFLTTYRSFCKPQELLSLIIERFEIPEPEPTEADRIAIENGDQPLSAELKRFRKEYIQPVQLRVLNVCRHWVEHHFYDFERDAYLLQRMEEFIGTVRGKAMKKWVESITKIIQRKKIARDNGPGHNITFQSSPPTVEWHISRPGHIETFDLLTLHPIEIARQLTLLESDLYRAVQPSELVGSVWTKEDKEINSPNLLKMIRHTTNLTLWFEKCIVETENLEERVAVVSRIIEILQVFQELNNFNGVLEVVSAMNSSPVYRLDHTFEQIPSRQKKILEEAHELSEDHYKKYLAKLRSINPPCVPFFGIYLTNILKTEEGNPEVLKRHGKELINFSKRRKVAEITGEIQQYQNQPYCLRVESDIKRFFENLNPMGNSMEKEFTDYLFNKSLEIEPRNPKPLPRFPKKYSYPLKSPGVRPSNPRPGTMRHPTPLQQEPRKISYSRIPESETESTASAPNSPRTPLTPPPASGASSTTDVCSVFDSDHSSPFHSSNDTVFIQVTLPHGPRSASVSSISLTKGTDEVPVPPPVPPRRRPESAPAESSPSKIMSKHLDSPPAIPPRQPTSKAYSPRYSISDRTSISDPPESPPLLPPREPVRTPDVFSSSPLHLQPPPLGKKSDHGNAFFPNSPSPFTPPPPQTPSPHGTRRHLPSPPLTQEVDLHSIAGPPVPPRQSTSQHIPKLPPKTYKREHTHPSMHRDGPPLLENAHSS

[5] = Human liver microsome stability test; type: in vitro ADME; settings: human liver microsomes; for Remaining percentage (%) of compound after incubation for 30 min: 37° C.; for half-life at 1 µM: human
Description: The human liver microsome stability test was performed by incubating the compound and human liver microsomes in vitro. First, the compound to be tested was prepared into a 10 mM stock solution in DMSO solvent, and then the compound was diluted to 0.5 mM with acetonitrile. Human liver microsomes (Corning) were diluted with PBS into a microsome/buffer solution, and the solution was used to dilute 0.5 mM compound into a working solution, in which the concentration of the compound was 1.5 μM, and the concentration of human liver microsomes was 0.75 mg/mL. A deep-well plate was taken, 30 μL of the working solution was added per well, and then 15 μL of pre-heated 6 mM NADPH solution was added thereto to initiate a reaction, and the reaction was incubated at 37° C. At 0, 5, 15, 30 and 45 min of the incubation, 135 μL of acetonitrile was added to the corresponding wells to terminate the reaction. After the reaction was terminated with acetonitrile at the last time point of 45 min, the deep-well plate was vortexed and vibrated for 10 min (600 rpm/min), and then centrifuged for 15 min. After centrifugation, the supernatant was collected, and added with purified water in a ratio of 1:1 to perform LC-MS/MS detection. A ratio of a peak area of compound to a peak area of internal standard at each time point was obtained, and the peak area ratios of the compound at 5, 15, 30 and 45 min were compared with the peak area ratio at 0 min to calculate the remaining percentage of the compound at each time point. T1/2 was calculated by using GraphPad 5 software.

SMILES	IC50 (H358 cells)	IC50 [1]	IC50 (KRAS G12C-SOS1 [2])	fraction unbound at 5 h, 1 µM [3]	IC50 (KRAS G12C-SOS1 [4])	Remaining percentage (%) of compound after incubation for 30 min [5]	half-life at 1 µM [5]
Cc1nc(N[C@H](C)c2cccc(S(=O)(=O)C(F)F)c2C)c2cn(C3(CF)CC3)c(=O)cc2n1 [Compound I-1, (R)-4-((1-(3-((difluoromethyl)sulfonyl)-2-methylphenyl)ethyl)amino)-6-(1-(fluoromethyl)cyclopropyl)-2-methylpyrido[4,3-d]pyrimidin-7(6H)-one]	26 nM	102 nM	59 nM	0.042	6.87 nM	76.4%	1.46 h
Cc1nc(N[C@H](C)c2cccc(S(=O)(=O)C(F)(F)F)c2F)c2cn(C3(CF)CC3)c(=O)cc2n1 [Compound I-2, (R)-4-((1-(2-fluoro-3-((trifluoromethyl)sulfonyl)phenyl)ethyl)amino)-6-(1-(fluoromethyl)cyclopropyl)-2-methylpyrido[4,3-d]pyrimidin-7(6H)-one]	13.9 nM	58 nM	102 nM	0.015	7.73 nM	96.5%	7.92 h
